# In US20180015100A1, “COMBINATION PRODUCTS FOR THE TREATMENT OF BACTERIAL INFECTIONS AND METHODS OF PRODUCING OR DOSING OF SAME” (priority 2016, published 2018):
# Read-outs that look alike come from different tables or passages of the source.
# Key:
# [1] = system: ESBL-producing Enterobacteriaceae isolates (panel of nineteen); test: MIC of cephalosporins alone or with clavulanate/tazobactam, whole panel; type: cell-based; settings: cephalosporin alone
# [2] = system: Citrobacter freundii isolates; test: MIC of cephalosporins alone or with clavulanate/tazobactam; type: cell-based; settings: clavulanate 2:1, tazobactam 4 μg/mL
# [3] = system: Enterobacter aerogenes isolates; test: as above; type: cell-based; settings: Klebsiella aerogenes, clavulanate 2:1, tazobactam 4 μg/mL
# [4] = system: Enterobacter cloacae isolates; test: as above; type: cell-based; settings: clavulanate 2:1, tazobactam 4 μg/mL
# [5] = system: Escherichia coli isolates; test: as above; type: cell-based; settings: clavulanate 2:1, tazobactam 4 μg/mL
# [6] = system: ESBL Klebsiella pneumoniae isolates; test: Killing kinetics (time-kill); type: cell-based; settings: 4X MIC of CTB+CLA
# [7] = system: ESBL Escherichia coli isolates; test: MIC against isolates analyzed in time-kill experiments; type: cell-based
# [8] = system: ESBL Klebsiella pneumoniae isolates; test: as above; type: cell-based
# [9] = system: Yersinia pestis Colorado92; test: microbe, parasite or virus in culture; type: cell-based
# [10] = system: Burkholderia pseudomallei 1026b; test: microbe, parasite or virus in culture; type: cell-based
# [11] = system: E. coli (ATCC 25922); test: One-compartment in vitro chemostat infection model, ceftibuten alone; type: cell-based
# Method: Becton, Dickinson and Company, Sparks, Md.) and placed in a water bath at 35° C. Magnetic stirrers were used for consistent mixing of the contents during the experiment. […] For each drug exposure/bacteria combination, the experiment was conducted over 24 hours and consisted of a drug free control and two experimental (i.e., drug containing) replicate models. Data from the two replicate models were treated as independent exposures given there is some expected variability in obtained concentrations due to small inconsistencies in volume flows between the chemostat models. A peristaltic pump (Masterflex L/S model 7524-40; Cole-Parmer, Vernon Hills, Ill.) was set to infuse CAMHB into the models at a desired elimination rate for the drug. Broth samples were collected from the model throughout the experiment to determine free drug concentrations and bacterial density. Antibiotic carryover was minimized by serial dilution of samples. Bacterial density was counted after 18-24 hours incubation at 37° C. […] Time-kill curves were constructed by plotting the log10 CFU/mL against time. […] The control models served to define 0% fT>MIC results. […] Drug concentrations were assessed at the peak and trough of each administered dose to achieve the desired exposure and at least one other midpoint concentration for each interval. […] The change in log10 CFU/ml at 24 hours was the primary endpoint for exposure response relationship. […] Mountain View, Calif.).
# [12] = system: beta-lactamase producing K. pneumoniae; test: In vitro chemostat model, clavulanate exposures with fixed ceftibuten exposure; type: cell-based
# [13] = target: CTX-M-15 (Escherichia coli, UniProt Q9EXV5); test: Competition assay with nitrocefin (IC50); type: biochemical
# [14] = system: E. coli clinical isolate expressing the ESBL CTX-M-15; type: in vivo, mouse; settings: 0.5-4 mg/kg q4 hr s.c. for 3 days
# [15] = clinical; settings: human, in vivo, 400 mg
# Method: The twice daily divided dose of study drug was administered approximately 12 hours apart. All subjects randomized to placebo received placebo oral capsules that were identical to study drug capsules and given according to the same dosing schedule and same quantity of capsules as subjects randomized to receive ceftibuten and clavulanate concurrently. All SDs, as well as the first daily dose of the MD period on […] were given while the subject was fasted. […] In addition, blood samples for assessment of trough (pre-dose) concentrations were collected on day 7, day 8, day 9, and alternate days thereafter through study day 17. […] Peak concentration (Cmax), time at which Cmax was observed (Tmax), area under the concentration-time curve to infinity (AUCinf), percent coefficient of variation (% CV), elimination half-life (T1/2), apparent total clearance of the drug from plasma after oral administration (CL/F), and apparent volume of distribution during terminal phase after non-intravenous administration (Vz/F) were determined. […] Similar to above, six subjects were randomized to receive active drug and two were randomized to receive placebo. […] Safety, tolerability and PK were assessed as described above.
# [16] = system: AECO001; test: MIC of cephalosporins (Table 16); type: cell-based
# [17] = in vivo, cited from earlier work
# [18] = In vivo drug-drug interaction, plasma pharmacokinetics after oral bolus; settings: rat, oral 34.5 mg/kg ceftibuten ± 10.8 mg/kg clavulanate
# Chain of CTX-M-15 (Q9EXV5 entry or part of it): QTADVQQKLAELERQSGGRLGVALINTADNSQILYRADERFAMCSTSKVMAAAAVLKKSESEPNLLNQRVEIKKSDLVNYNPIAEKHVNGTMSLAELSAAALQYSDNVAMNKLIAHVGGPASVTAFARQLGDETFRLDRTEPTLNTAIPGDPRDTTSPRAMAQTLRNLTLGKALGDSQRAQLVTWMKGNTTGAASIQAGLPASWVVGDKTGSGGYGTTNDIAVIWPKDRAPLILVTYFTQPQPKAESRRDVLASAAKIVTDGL
structure (smiles),measurement,setting,value
"Nc1nc(/C(=C/CC(=O)O)C(=O)N[C@@H]2C(=O)N3C(C(=O)O)=CCS[C@H]23)cs1 [Ceftibuten, ceftibuten]",ESBL-producing isolates with MIC<8 μg/mL,[1]; 19 isolates,10 of 19
same,MICs relative to CLSI/EUCAST MIC breakpoints for the approved dosing regimens,[1]; ESBL-producing Enterobacteriaceae,above the CLSI/EUCAST
same,MIC,"[2]; ACFR1034 (CTX-M-15, TEM-OSBL)",> 64 µg/mL
same,MIC,"[2]; ACFR1035 (CTX-M-3, TEM-OSBL)",16 µg/mL
same,MIC,[3]; AEAE1027 (CTX-M-14),1 µg/mL
same,MIC,[3]; AEAE1029 (CTX-M-15),8 µg/mL
same,MIC,[4]; AECL1065 (CTX-M-15),> 64 µg/mL
same,MIC,[4]; AECL1067 (CTX-M-3),32 µg/mL
same,MIC,[5]; AECO001 (no ESBL),0.5 µg/mL
same,MIC,[5]; AECO1078 (CTX-M-15),32 µg/mL
same,MIC,[5]; AECO1147 (CTX-M-15),4 µg/mL
same,MIC,"[5]; AECO1157 (CTX-M-15, TEM-OSBL)",8 µg/mL
same,MIC,[5]; AECO1159 (CTX-M-15),16 µg/mL
same,MIC,"[5]; AECO1169 (CTX-M-1, TEM-OSBL)",1 µg/mL
same,MIC,[5]; AECO1172 (CTX-M-14),2 µg/mL
same,Change in Log10 CFU/mL From Inoculum (0 hr),"[6]; AKPN1159, 2 h",0.65 Log10 CFU/mL
same,Change in Log10 CFU/mL From Inoculum (0 hr),"[6]; AKPN1159, 4 h",2.37 Log10 CFU/mL
same,Change in Log10 CFU/mL From Inoculum (0 hr),"[6]; AKPN1159, 6 h",3.01 Log10 CFU/mL
same,Change in Log10 CFU/mL From Inoculum (0 hr),"[6]; AKPN1159, 24 h",3.71 Log10 CFU/mL
same,Change in Log10 CFU/mL From Inoculum (0 hr),"[6]; AKPN1162, 2 h",1.57 Log10 CFU/mL
same,Change in Log10 CFU/mL From Inoculum (0 hr),"[6]; AKPN1162, 4 h",2.76 Log10 CFU/mL
same,Change in Log10 CFU/mL From Inoculum (0 hr),"[6]; AKPN1162, 6 h",2.96 Log10 CFU/mL
same,Change in Log10 CFU/mL From Inoculum (0 hr),"[6]; AKPN1162, 24 h",3.55 Log10 CFU/mL
same,MIC,"[7]; AECO1156 (CTXM-15, TEM-OSBL)",16 µg/mL
same,MIC,"[7]; AECO1157 (CTXM-15, TEM-OSBL)",8 µg/mL
same,MIC,[7]; AECO1162 (CTX-M-14),8 µg/mL
same,MIC,[7]; AECO1166 (SHV-12),2 µg/mL
same,MIC,"[8]; AKP1162 (SHV-12, CTX-M-15)",32 µg/mL
same,MIC,[8]; AKPN1159 (SHV-12),4 µg/mL
same,MIC,[9],0.03 µg/mL
same,MIC,[10],8 µg/mL
same,fT > MIC for 1-log CPU reduction,"[11]; 24 hours, Emax model",58.5%
same,fT > MIC for 2-log CPU reduction,"[11]; 24 hours, Emax model",66.0%
same,fT > MIC for Stasis,"[11]; 24 hours, Emax model",53.7%
same,MIC,"[11]; Escherichia coli, ATCC25922",0.25 µg/mL
same,MIC,"[12]; K. pneumoniae CTX-M-14, SHV-12",16 µg/mL
same,MIC,"[12]; K. pneumoniae CTX-M-15, SHV-12",> 64 µg/mL
same,IC50,[13],> 1 mM
same,IC50,"[13]; read-out: IC50 (95% CI), competition with nitrocefin",> 1 mM
same,"bacterial titers, bladder",[14],4.06-4.58 log10 CFU
same,"bacterial titers, kidneys",[14],4.26-5.83 log10 CFU
same,"bacterial titers, urine",[14],3.62-4.81 log10 CFU
same,"reduction of bacterial titers relative to untreated control, bladder",[14],2.8-3.35 log10 CFU
same,"reduction of bacterial titers relative to untreated control, kidneys",[14],0.6-2.17 log10 CFU
same,"reduction of bacterial titers relative to untreated control, urine",[14],2.46-3.65 log10 CFU
same,geometric mean % CV of exposure (Cmax and AUCinf),[15],11-16%
same,AUC(0-inf),"[15]; po, AUCinf",93000 ng·h/mL
same,Cmax,"[15]; po, Cmax",17900 ng/mL
same,half-life,"[15]; po, T½",187 min
same,Vd/F,"[15]; po, Vz/F",19.3 L
same,MIC,[16],0.5 µg/mL
same,Mean Cmax,[17]; 400 mg,15 µg/mL
same,Mean fCmax,[17]; 400 mg,5.3 µg/mL
same,bioavailability,[17]; po,40-90%
same,time free drug concentrations >2 μg/mL following drug administration,[17]; po,at least 6 hours
same,Elimination half-life,[17],~2.4 h
same,Mean unbound plasma concentration following one elimination half-life,[17],2.6 µg/mL
same,effect of the combination on plasma concentration of ceftibuten vs ceftibuten alone,[18],did not markedly alter
